Laboratory results taken from patent US5807535A, “Metal complexes of hydroxyaryl containing aminocarboxylic acid chelating agents” (Australian Nuclear Science & Technology Organisation, priority 1992, dated 1998).

Tests used:
[1] = Serum stability of 99mTc complex of (1); format: in vitro ADME; conditions: first hour at 37° C., read-out: technetium lost from the chelator in serum
Method: A typical method of radiolabelling of the chelator was achieved by dissolving the chelator in a basic solution of saline. The pH was then adjusted to approx. 6 with HCl. Excess stannous chloride was added to the resultant solution followed by one equivalent volume of sodium ^99m TcO4 (10-50 mCi/ml). Final concentration of the chelator was approx. 1 mg/ml. The efficacy of labelling was determined by ITLC-SG. For each product only one main radiochemical species was observed. Each complex was diluted to 15 μCi/100 μl with saline. […] (See FIGS. 1A and 1B).

[2] = Radiolabelling of chelators with 64Cu and 67Cu; format: physicochemical; conditions: ligand:metal ratio 4:1, ITLC
Method: A typical procedure involved the dissolving Cu-67 20 μl of original stock in an acetate buffer (0.2 M; pH 4.5) to a total volume of 500 μl. To this solution was added 500 μl of the ligand (20 mg/ml) solution in acetate buffer. The mixture was then left to react at 37° C. for 20 minutes. ITLC confirmed the labelling was greater than >95%.

[3] = Serum stability of Copper-67 complexes; format: in vitro ADME
Method: The serum stability was determined for selected derivatives and typical procedure is as follows.
The ligand (1) was labelled with Cu-67 at a ligand:metal ratio of 4:1.

[4] = Serum stability of 166Dy/166Ho complex of (1); format: in vitro ADME; conditions: human serum, 37° C.
Method: The radiolabelling (1) is then incubated in human serum at 37° C. At various time intervals the aliquots are separated and monitored for UV absorbance and radioactivity. The data illustrated in FIG. 31 show the complex is stable for >46 hrs.

[5] = Effect of pH on complexation of 99mTc with ligand (5); format: physicochemical
Method: Radiolabelling with ^99m Tc was investigated over a range of pHs (3.0-10.0) (described in Table B). To ligand (5) (1.0 ml:1 mg/ml) dissolved in appropriate buffer was added an excess of stannous chloride (20 μl:2 mg/ml) in 0.1 N HCl. To this mixture is added an appropriate activity of ^99m TcO4 (20 μl) eluted from a technetium generator.
All reactions were carried out at room temperature.
Percent complexation was monitored by ITLC-SG using two solvent systems. […]

O=C(O)CN(CCN(CC(=O)O)CC(=O)Nc1ccccc1O)CC(=O)Nc1ccccc1O [Compound 1]
degraded at 1 h [1]: ≤ 15% | efficiency of labelling with Cu-67 [2]: > 95% | further loss in serum ([3]; Cu-67, after 24 hours): no further loss | degraded at 4 h ([3]; serum, Cu-67, initial 4 hours, read-out: loss in serum): 4% | serum stability (complex is stable for) [4]: > 46 h

Nc1ccc(O)c(NC(=O)CN(CCN(CC(=O)O)CC(=O)Nc2cc(N)ccc2O)CC(=O)O)c1 [Compound 5]
complexation ([5]; 99mTc, pH 10.0): poor | stability of product ([5]; 99mTc, pH 10.0): unstable | stability of final product (stable for upto) ([5]; 99mTc, pH range 3.0-9.0): ≤ 2 h | optimum pH of complexation ([5]; 99mTc, room temperature): 3.0-4.0 pH | Percent 99mTc complexed ([5]; pH 3, 1 min): 89% | Percent 99mTc complexed ([5]; pH 3, 3 min): 93% | Percent 99mTc complexed ([5]; pH 3, 5 min): 90% | Percent 99mTc complexed ([5]; pH 3, 10 min): 91% | Percent 99mTc complexed ([5]; pH 3, 15 min): 90% | Percent 99mTc complexed ([5]; pH 3, 30 min): 92% | Percent 99mTc complexed ([5]; pH 3, 1 h): 92% | Percent 99mTc complexed ([5]; pH 3, 2 h): 94% | Percent 99mTc complexed ([5]; pH 4, 1 min): 94% | Percent 99mTc complexed ([5]; pH 4, 3 min): 97% | Percent 99mTc complexed ([5]; pH 4, 5 min): 92% | Percent 99mTc complexed ([5]; pH 4, 10 min): 94% | Percent 99mTc complexed ([5]; pH 4, 15 min): 96% | Percent 99mTc complexed ([5]; pH 4, 30 min): 91% | Percent 99mTc complexed ([5]; pH 4, 1 h): 100% | Percent 99mTc complexed ([5]; pH 4, 2 h): 100% | Percent 99mTc complexed ([5]; pH 5, 1 min): 84% | Percent 99mTc complexed ([5]; pH 5, 3 min): 83% | Percent 99mTc complexed ([5]; pH 5, 5 min): 91% | Percent 99mTc complexed ([5]; pH 5, 10 min): 83% | Percent 99mTc complexed ([5]; pH 5, 15 min): 81% | Percent 99mTc complexed ([5]; pH 5, 30 min): 71% | Percent 99mTc complexed ([5]; pH 5, 1 h): 85% | Percent 99mTc complexed ([5]; pH 5, 2 h): 88% | Percent 99mTc complexed ([5]; pH 6, 1 min): 80% | Percent 99mTc complexed ([5]; pH 6, 3 min): 80% | Percent 99mTc complexed ([5]; pH 6, 5 min): 83% | Percent 99mTc complexed ([5]; pH 6, 10 min): 80% | Percent 99mTc complexed ([5]; pH 6, 15 min): 82% | Percent 99mTc complexed ([5]; pH 6, 30 min): 90% | Percent 99mTc complexed ([5]; pH 6, 1 h): 85% | Percent 99mTc complexed ([5]; pH 6, 2 h): 91% | Percent 99mTc complexed ([5]; pH 7, 1 min): 73% | Percent 99mTc complexed ([5]; pH 7, 3 min): 83% | Percent 99mTc complexed ([5]; pH 7, 5 min): 81% | Percent 99mTc complexed ([5]; pH 7, 10 min): 74% | Percent 99mTc complexed ([5]; pH 7, 15 min): 87% | Percent 99mTc complexed ([5]; pH 7, 30 min): 80% | Percent 99mTc complexed ([5]; pH 7, 1 h): 83% | Percent 99mTc complexed ([5]; pH 7, 2 h): 52% | Percent 99mTc complexed ([5]; pH 8, 1 min): 76% | Percent 99mTc complexed ([5]; pH 8, 3 min): 88% | Percent 99mTc complexed ([5]; pH 8, 5 min): 81% | Percent 99mTc complexed ([5]; pH 8, 10 min): 83% | Percent 99mTc complexed ([5]; pH 8, 15 min): 87% | Percent 99mTc complexed ([5]; pH 8, 30 min): 85% | Percent 99mTc complexed ([5]; pH 8, 1 h): 77% | Percent 99mTc complexed ([5]; pH 8, 2 h): 81% | Percent 99mTc complexed ([5]; pH 9, 1 min): 90% | Percent 99mTc complexed ([5]; pH 9, 3 min): 100% | Percent 99mTc complexed ([5]; pH 9, 5 min): 94% | Percent 99mTc complexed ([5]; pH 9, 10 min): 86% | Percent 99mTc complexed ([5]; pH 9, 15 min): 100% | Percent 99mTc complexed ([5]; pH 9, 30 min): 83% | Percent 99mTc complexed ([5]; pH 9, 1 h): 85% | Percent 99mTc complexed ([5]; pH 9, 2 h): 74% | Percent 99mTc complexed ([5]; pH 10, 1 min): 15% | Percent 99mTc complexed ([5]; pH 10, 3 min): 16% | Percent 99mTc complexed ([5]; pH 10, 5 min): 11% | Percent 99mTc complexed ([5]; pH 10, 10 min): 13% | Percent 99mTc complexed ([5]; pH 10, 15 min): 9% | Percent 99mTc complexed ([5]; pH 10, 1 h): 8% | Percent 99mTc complexed ([5]; pH 10, 2 h): 8%
